Experiment: gradient 5% acetonitrile 3 min, to 50% in 2 min, to 85% in 15 min, held 3 min, 100 µL/min
Details: column: Zorbax Extend-C18 2.1 x 50 mm; eluents: water / acetonitrile, 0.1% formic acid
In short: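 Data were gathered over 3 months by HPLC coupled to a quadrupole time-of-flight mass spectrometer, operated in positive and negative ionization mode. Mixtures of ~100 pure standards ran on a Zorbax Extend-C18 column (2.1 × 50 mm, 1.8 μm) at 100 μL/min, with water and acetonitrile each containing 0.1% formic acid and dead and dwell volumes of 40 μL and 900 μL. Retention time was read from adduct peaks picked by computer and checked manually.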

Structure (SMILES)	RP-LC retention time
COc1ccc2c(c1)CCc1sc(NC(=O)c3ccc(Br)cc3)nc1-2	1190 s
COc1ccccc1NC(=O)c1oc2ccccc2c1NC(=O)Cc1ccc(F)cc1	1180 s
Cn1nc(C2CCN(C(=O)C3CCCO3)CC2)c2c1CCOC2 (configuration not stated)	586 s
COc1ccc(OC)c(S(=O)(=O)N2CC(N3CC(C(=O)N4CCCC4)CC3=O)C2)c1 (configuration not stated)	666 s
CCCCN(C)CCCNC(=O)C1CCN(S(=O)(=O)CCC)CC1	968 s
Cc1cc(C)n(C(C[N+](=O)[O-])c2ccc(Cl)cc2Cl)n1 (configuration not stated)	1110 s
CC(C)CNC(=O)c1cn(-c2cc(-c3nc(C4CC4)no3)ccn2)cn1	646 s
O=C(NC1CCCCCCC1)C1CCCN(c2cn[nH]c(=O)c2)C1 (configuration not stated)	719 s
O=c1c2scc(-c3ccc(F)cc3)c2ncn1Cc1cc(=O)n2ccccc2n1	810 s
Cc1ccn2c(Nc3ccc4c(c3)OCCO4)c(-c3ccc(N(C)C)cc3)nc2c1	734 s
CCCOC(=O)C1=CN(Cc2ccccc2)S(=O)(=O)N=C1C	1020 s
CN(C)CCn1nnc2cc(-c3noc(-c4ccccc4Br)n3)ccc21	681 s
CCc1cccc(C)c1Nc1c(-c2cccc(O)c2)nc2ncccn12	730 s
Cc1ncc([N+](=O)[O-])n1CCOC(N)=O	624 s
O=C(NCc1ccc(S(=O)(=O)N2CCCC2)s1)c1cccc(-c2nnc(-c3ccccc3)o2)c1	948 s
CCC(=O)N(CC(=O)N1CCc2sccc2C1COc1ccccc1OC)C1CC1 (configuration not stated)	871 s
CCOc1ccccc1NC(=O)C(=O)NCCc1ccsc1	1020 s
O=C(NCCc1cccnc1)C1CN(S(=O)(=O)c2ccccc2)CC12CCCCC2 (configuration not stated)	664 s
O=C(Cn1cnc2nc(N3CCCC(C(=O)NC4CC4)C3)sc2c1=O)Nc1ccc(F)cc1F (configuration not stated)	673 s

Structure (SMILES)	RP-LC retention time
CCOc1nn(CC)cc1C(=O)NCCc1c[nH]c2ccccc12	736 s
N#Cc1ccc(NC(=O)C2CCCN(S(=O)(=O)c3cc(-c4noc(C5CCC5)n4)cs3)C2)cc1 (configuration not stated)	1120 s
COc1c(C(=O)NCc2ccc(C)o2)sc2cc(Cl)ccc12	1120 s
O=C(CSc1ccc(NC(=O)c2cccs2)nn1)Nc1cccc(Cl)c1Cl	942 s
CN(CCc1noc(C2CN(Cc3cccc(C(F)(F)F)c3)C2)n1)S(C)(=O)=O	643 s
CN(Cc1ccccc1)c1ncc(C(=O)O)c(-c2ccncc2)n1	675 s
CCOc1cc(CNC(=O)C2CCCN(C(=O)c3[nH]c(C)cc3C)C2)cc(OCC)c1OCC (configuration not stated)	876 s
CCCCOc1ccc(C(=O)N2CCNC(=O)C2CC(=O)OC2CCCCC2)cc1 (configuration not stated)	1000 s
CCc1nnc(-c2ccc3ccn(CC(=O)Nc4ccccc4C)c3c2)o1	826 s
CS(=O)(=O)N1CCn2nc(-c3cccs3)cc21	681 s
Cc1ccccc1CSc1nnc(-c2ccccc2Cl)o1	1180 s
Cc1nc(-c2cnccn2)nc2c1CCC(=O)N2Cc1cccc(F)c1	733 s
Cc1cc(C(=O)Nc2nc3c(s2)CN(C(=O)c2cccn(C)c2=O)CC3)no1	595 s
CCn1c(=O)oc2cc(-c3noc(-c4ccc(OC)cc4)n3)ccc21	976 s
CCOC(=O)c1ncn2c1[C@@H]1CCCN1C(=O)c1cc(OC)ccc1-2	758 s
O=C(NC1CCCCC1)N1CCC(N2C(=O)C3(CCCCC3)C2c2ccncc2)CC1 (configuration not stated)	659 s
COc1ccc(CC2C(=O)Nc3ccc(Cl)cc32)cc1 (configuration not stated)	888 s
CCCCNC(=O)Cc1nnc(-c2cccc(F)c2)o1	731 s

The next lines start with the values.

RP-LC retention time	Structure (SMILES)
691 s	O=C(CN1C(=O)COc2ccc(C(=O)N3CCCCC3)cc21)NCc1ccco1
687 s	COc1ccc(SCC(=O)Nc2c3c(nn2C)CCC3)cc1
782 s	Cc1ccc(-c2cc3c(N4CCCC(C(=O)NC5CC5)C4)nccn3n2)c(C)c1 (configuration not stated)
759 s	CCn1c(=O)n(CC)c2cc(S(=O)(=O)c3ccc(C)cc3)c(NC(C)=O)cc21
936 s	O=C(c1ccc(Cl)cc1Cl)N1CCN(c2cc(-c3ccccc3)[nH]n2)CC1
982 s	Cc1ccc(CNC(=O)C2(C)Oc3cccnc3N(C(C)C)C2=O)cc1 (configuration not stated)
770 s	CC(C)N1CCN(Cc2ccc(C(=O)NCc3ccccc3C(F)(F)F)cc2)C(=O)C1=O
892 s	CC(C)c1ccc(CNC(=O)C2CCN(C(=O)c3ncn4c3COC(c3ccccc3)C4)CC2)cc1 (configuration not stated)
842 s	CCN1C(=O)COc2ccc(-c3noc(C4CC(=O)N(c5ccc(OC)cc5)C4)n3)cc21 (configuration not stated)
794 s	Cc1ccc(N2CCC(NC(=O)c3ccccc3)C2=O)cc1 (configuration not stated)
586 s	CCN1CCN(C(=O)C2CCN(c3nc4ccc(-c5cccs5)nc4s3)CC2)CC1
842 s	Cc1cccc(CN2CCCn3nc(C(=O)NCCCOC(C)C)cc3C2=O)c1
766 s	O=C(Cc1ccsc1)NCCC1CCN(C(=O)Nc2ccc(F)cc2F)CC1
729 s	Cc1ccc(NC(=O)C2CCN(S(=O)(=O)c3c(C)[nH]c(C)c3C(=O)N3CCCC3)CC2)c(C)c1
648 s	O=C(Cc1ccsc1)Nc1ccc(-c2nnc3n2CCCC3)cc1
838 s	CCn1ncn2cc(S(=O)(=O)NC(C)c3ccccc3)cc2c1=O (configuration not stated)
836 s	COC(=O)c1cc2c(=O)n(Cc3ccc(OC)cc3)ccc2nc1C
1030 s	CSc1ccc(CNC(=O)C2CCCN(c3nccn4nc(-c5ccc(C)cc5C)cc34)C2)cc1 (configuration not stated)
853 s	COc1ccc(C2CCN(C(=O)c3ccoc3)CC2)cc1
696 s	COc1ccc(CC(=O)N2CCCC2c2c(C)noc2C)cc1OC (configuration not stated)
730 s	COCCn1nc2n(c1=O)CCN(C(=O)C1(c3ccccc3)CCCC1)CC2
931 s	Cc1cc(C)n(Cc2nc(-c3ccc(NC(=O)C4CCCC4)cc3)oc2C)n1
1000 s	O=C(Nc1ccc2c(c1)OCO2)C(=O)c1cn(CC(=O)N2CCCCC2)c2ccccc12
766 s	Cc1ccccc1S(=O)(=O)N1CCn2c(nn(CC3CC3)c2=O)C1
834 s	CC(C)C(=O)N1CCN(c2ccc(=O)n(-c3ccc(C(C)C)cc3)n2)CC1
642 s	CCc1nc(N)n(CC(=O)NCc2ccc(C)cc2)c(=O)c1C
1110 s	COC(=O)c1ccc2c(=O)n(-c3cccc(C)c3)c(N3CCSCC3)nc2c1
690 s	Cc1sc2cc(C(=O)N3CCN(c4ccc(F)cc4)CC3)[nH]c2c1CN1CCOCC1
576 s	CC1CS(=O)(=O)N(c2ccc(C(=O)N3CCN(c4ccccn4)CC3)c(Cl)c2)C1=O (configuration not stated)
723 s	CC1CN(CC(=O)N2CCN(Cc3ccc4c(c3)OCO4)CC2)c2ccccc2S1 (configuration not stated)

Source: the METLIN SMRT retention time set (Domingo-Almenara et al. 2019)
